Key:
[1] = tested on: human cord blood CD45+ cells; experiment: Flow cytograms of cord blood CD45+ cells cultured 14 days with IL3, IL6, G-CSF, Epo and KL; assay type: cell-based; settings: 5 μg/ml
Experimental: (§1) FIGS. 9(A-F). Flow cytograms. […] Cord blood CD45+ cells were cultured for 14 days with cytokines IL3, IL6, G-CSF, Epo and KL. Percentages indicated on each cytogram indicate the percentage of the cell population expressing a particular combination of markers. A. Control, immunoglobulin (Ig). B. Control, no compound added. C. DMSO (5 μg/ml). D. Thal (5 μg/ml). E. ACTIMID™ (5 μg/ml). F. REVIMID™ (5 μg/ml). X-axis: relative intensity of CD38 (FL1-H) staining. Y-axis: relative intensity of CD19 (FL2-H) staining. See Section 6.3 for details.
as §1, with “10(A-F).” for “9(A-F).”, “CXCR5” for “CD38”, “CD34” for “CD19”

[2] = tested on: CD1a+CD14− and CD1a−CD14+ cells (DC progenitors); experiment: Detection of apoptosis (Annexin V-FITC / propidium iodide) in isolated DC progenitors; assay type: cell-based, human; settings: 1 μM; 2 days; GM-CSF and TNF-α
Experimental: Detection of apoptosis: Phosphatidyl serine exposure was determined using Annexin V-FITC staining in combination with propidium iodide (BD Pharmingen apoptosis detection kit I) following manufacturer instruction.
Block in DC generation is not mediated by specific killing of the DC progenitors: To determine if the decrease in DC progenitors was mediated by specific killing, CD34^+ progenitor cells were cultured for a period of 6 days in the presence of SCF, Flt-3L, GM-CSF and TNF-α. At day 6, CD1a^+CD14^− and […] cells (DC progenitors) were isolated by magnetic cell sorting (Miltenyi). Purified populations were cultured for an additional 2 days in the presence of GM-CSF and TNF-α with or without ACTIMID™ (1 μM).

[3] = tested on: allogenic CD3+ T cells stimulated by CD34+-derived DC cells; experiment: T cell proliferation assay (Mixed Leucocyte Reaction); assay type: cell-based, human; settings: compared to DMSO control
Experimental: T cell proliferation assay: After 13 days of culture, CD34^+-derived DC cells were collected, and after treatment with mitomycin C (50 μg/ml, Sigma), used as stimulators cells for allogenic adult CD3^+ T cells purified from peripheral blood mononuclear cells (PBMCs) from healthy volunteers. CD3^+ T responder cells were used at a concentration of 5×10^4 cells/well. Stimulators cells were added in graded doses to the T cells in black 96-well flat bottom, clear bottom tissue culture plates for chemiluminescence detection. Cultures were performed in RPMI 1640 medium supplemented with 10% heat-inactivated FBS, glutamine and Penicillin-streptomycin. After 6 days of culture, cell proliferation was measured with the BrdU chemiluminescence assay (Roche, Nutley N.J.), following manufacturer instructions. Results are presented as the mean±SD obtained from triplicate cultures.

Nc1cccc2c1C(=O)N(C1CCC(=O)NC1=O)C2=O (centres unmarked) [ACTIMID™, 4-(Amino)-2-(2,6-dioxo(3-piperidyl))-isoindoline-1,3-dione]
differentiation into B cells (CD19/CD38 staining) ([1]; FIG. 9): minor suppressive effects | repression of CXCR5 produced by exposure to DMSO ([1]; FIG. 10): overcomes the repression | level of annexin V+-PI− (early apoptosis) and annexin V+-PI+ (late apoptosis) populations [2]: no significant increase | capacity to stimulate the proliferation of T-cells ([3]; compound from day 1 to day 12): reduced capacity | capacity to stimulate the proliferation of T-cells ([3]; compound from day 6 to day 12): comparable

Reference: patent US8889411B2, “Modulation of stem and progenitor cell differentiation, assays, and uses thereof” (Anthrogenesis Corporation, priority 2002, dated 2014)
